Results as given in patent EP0007672A1, “Isocyanoalkenes, process and useful intermediates for their preparation, pharmaceutical and fungicidal preparations containing those isocyanoalkenes and the use of the fungicidal preparations in agriculture” (GIST-BROCADES N.V., priority 1978, dated 1980).
Values after ≈ are worked out from the molar mass of the structure shown. Like-named read-outs stand apart in the source and are kept apart here.

Tests used:
Experiment in all cases: MIC (Minimum Inhibitory Concentration)
Assay type in all cases: cell-based
[1] = test system: Trichophyton mentagrophytus
Text: (§1) In addition they may be used for combatting plant diseases, in particular as fungicides. A list of MIC (Minimum Inhibitory Concentration) values for a number of microorganisms is listed herebelow. The figures in the column headings refer to the compounds prepared according to the experimental examples in comparison with the spectrum of 1-[2-(2,4-dichlorophenyl)-2-{(2,4-dichlorophenyl)-methoxy} -ethyl7-1H-imidazole (better known under the name of miconazole, c.f. Merck Index 9th Ed. page 6047) or natamycin (pimaricin, c.f. Merck Index 9th Ed. page 7233).

Trichophyton verrucosum = test system: Trichophyton verrucosum
Text: as §1

Trichophyton tonsurans = Trichophyton tonsurans 561-50; read-out: MIC values
Text: as §1

Pasteurella multocida = settings: read-out: MIC values
Text: as §1

Candida albicans = test system: Candida albicans
Text: as §1

Trichophyton equinum = test system: Trichophyton equinum
Text: as §1

Trichophyton quickeaneum = Trichophyton quickeaneum A 2040; read-out: MIC values
Text: as §1

Trichophyton rubrum = test system: Trichophyton rubrum
Text: as §1

Trichophyton violoceum = Trichophyton violoceum 442-62; read-out: MIC values
Text: as §1

[2] = test system: Trichophyton soudanese joyeux; settings: Trichophyton soudanese joyeux 440-63; read-out: MIC values
Text: as §1

[3] = test system: Trichophyton schoenleinii; settings: Trichophyton schoenleinii 435-63; read-out: MIC values
Text: as §1

[4] = Trichophyton mentagrophytus 367-68, read-out: MIC values
[5] = Trichophyton mentagrophytus 421-67, read-out: MIC values
[6] = Trichophyton mentagrophytus A 3252, read-out: MIC values
[7] = Trichophyton mentagrophytus R 177, read-out: MIC values
[8] = Trichophyton mentagrophytus R 178, read-out: MIC values
[9] = Trichophyton mentagrophytus RRL 305, read-out: MIC values
[10] = Trichophyton verrucosum 134-66, read-out: MIC values
[11] = Trichophyton verrucosum A 2922, read-out: MIC values
[12] = Candida albicans A 7, read-out: MIC values
[13] = Candida albicans A 3140, read-out: MIC values
[14] = Candida albicans A 3141, read-out: MIC values
[15] = Candida albicans A 3144, read-out: MIC values
[16] = Candida albicans A 3145, read-out: MIC values
[17] = Candida albicans A 3165, read-out: MIC values
[18] = Candida albicans A 3166, read-out: MIC values
[19] = Candida albicans A 3167, read-out: MIC values
[20] = Candida albicans A 3168, read-out: MIC values
[21] = Candida albicans A 3169, read-out: MIC values
[22] = Candida albicans A 3171, read-out: MIC values
[23] = Candida albicans A 3190, read-out: MIC values
[24] = Candida albicans A 3191, read-out: MIC values
[25] = Candida albicans A 3194, read-out: MIC values
[26] = Candida albicans A 3196, read-out: MIC values
[27] = Trichophyton equinum 182-76, read-out: MIC values
[28] = Trichophyton equinum 856-71, read-out: MIC values
[29] = Trichophyton rubrum 218-65, read-out: MIC values
[30] = Trichophyton rubrum 494-62, read-out: MIC values
[31] = Trichophyton rubrum A 810, read-out: MIC values

Row | MIC [1, 4] | MIC [1, 5] | MIC [1, 6] | MIC [1, 7] | MIC [1, 8] | MIC [1, 9] | MIC (Trichophyton verrucosum; [10]) | MIC (Trichophyton verrucosum; [11]) | MIC (Trichophyton tonsurans) | MIC (Pasteurella multocida; Pasteurella multocida A 723) | MIC (Candida albicans; [12]) | MIC (Trichophyton equinum; [27]) | MIC (Trichophyton equinum; [28]) | MIC (Trichophyton quickeaneum) | MIC (Trichophyton rubrum; [29]) | MIC (Trichophyton rubrum; [30]) | MIC (Trichophyton rubrum; [31]) | MIC (Trichophyton violoceum) | MIC [2] | MIC [3] | SMILES | further results
1 | 6 µg/mL (≈ 24.1 µM) | 6 µg/mL (≈ 24.1 µM) | 6 µg/mL (≈ 24.1 µM) | 6 µg/mL (≈ 24.1 µM) | 6 µg/mL (≈ 24.1 µM) | 3 µg/mL (≈ 12 µM) | 0.8 µg/mL (≈ 3.21 µM) | 6 µg/mL (≈ 24.1 µM) | 3 µg/mL (≈ 12 µM) | 1.5 µg/mL (≈ 6.02 µM) | 0.2 µg/mL (≈ 0.802 µM) | 0.4 µg/mL (≈ 1.6 µM) | < 0.05 µg/mL | 0.1 µg/mL (≈ 0.401 µM) | 0.4 µg/mL (≈ 1.6 µM) | 0.4 µg/mL (≈ 1.6 µM) | 0.4 µg/mL (≈ 1.6 µM) | 12.5 µg/mL (≈ 50.1 µM) | 6 µg/mL (≈ 24.1 µM) | 6 µg/mL (≈ 24.1 µM) | [C-]#[N+]C(=C(C)CC)S(=O)(=O)c1ccc(C)cc1 [Example 27a, 1-isocyano-2-methyl-1-(4-toluenesulphonyl)-1-butene] | MIC (Candida albicans; [13]): 0.8 µg/mL (≈ 3.21 µM); MIC (Candida albicans; [14]): < 0.05 µg/mL; MIC (Candida albicans; [15]): 0.2 µg/mL (≈ 0.802 µM); MIC (Candida albicans; [16]): < 0.05 µg/mL; MIC (Candida albicans; [17]): 0.8 µg/mL (≈ 3.21 µM); MIC (Candida albicans; [18]): 3 µg/mL (≈ 12 µM); MIC (Candida albicans; [19]): 0.2 µg/mL (≈ 0.802 µM); MIC (Candida albicans; [20]): 0.2 µg/mL (≈ 0.802 µM); MIC (Candida albicans; [21]): 0.1 µg/mL (≈ 0.401 µM); MIC (Candida albicans; [22]): 0.2 µg/mL (≈ 0.802 µM); MIC (Candida albicans; [23]): < 0.05 µg/mL; MIC (Candida albicans; [24]): 0.1 µg/mL (≈ 0.401 µM); MIC (Candida albicans; [25]): < 0.05 µg/mL; MIC (Candida albicans; [26]): 0.4 µg/mL (≈ 1.6 µM)
2 | 3 µg/mL (≈ 12 µM) | 3 µg/mL (≈ 12 µM) | 3 µg/mL (≈ 12 µM) | 6 µg/mL (≈ 24.1 µM) | 6 µg/mL (≈ 24.1 µM) | 3 µg/mL (≈ 12 µM) | 1.5 µg/mL (≈ 6.02 µM) | 6 µg/mL (≈ 24.1 µM) | 3 µg/mL (≈ 12 µM) | 3 µg/mL (≈ 12 µM) | 0.4 µg/mL (≈ 1.6 µM) | 0.8 µg/mL (≈ 3.21 µM) | 0.4 µg/mL (≈ 1.6 µM) | 1.5 µg/mL (≈ 6.02 µM) | 1.5 µg/mL (≈ 6.02 µM) | 0.8 µg/mL (≈ 3.21 µM) | 0.8 µg/mL (≈ 3.21 µM) | 6 µg/mL (≈ 24.1 µM) | 6 µg/mL (≈ 24.1 µM) | 6 µg/mL (≈ 24.1 µM) | [C-]#[N+]C(C(C)=CC)S(=O)(=O)c1ccc(C)cc1 (stereo not drawn) [Example 27b, 1-isocyano-2-methyl-l-(4-toluenesulphonyl)-2-butene] | MIC (Candida albicans; [13]): 0.8 µg/mL (≈ 3.21 µM); MIC (Candida albicans; [14]): < 0.05 µg/mL; MIC (Candida albicans; [15]): 0.4 µg/mL (≈ 1.6 µM); MIC (Candida albicans; [16]): < 0.05 µg/mL; MIC (Candida albicans; [17]): 1.5 µg/mL (≈ 6.02 µM); MIC (Candida albicans; [18]): 3 µg/mL (≈ 12 µM); MIC (Candida albicans; [19]): 0.4 µg/mL (≈ 1.6 µM); MIC (Candida albicans; [20]): 0.4 µg/mL (≈ 1.6 µM); MIC (Candida albicans; [21]): 0.4 µg/mL (≈ 1.6 µM); MIC (Candida albicans; [22]): 0.4 µg/mL (≈ 1.6 µM); MIC (Candida albicans; [23]): 0.1 µg/mL (≈ 0.401 µM); MIC (Candida albicans; [24]): 0.2 µg/mL (≈ 0.802 µM); MIC (Candida albicans; [25]): 0.4 µg/mL (≈ 1.6 µM); MIC (Candida albicans; [26]): 0.4 µg/mL (≈ 1.6 µM)

Row | SMILES | MIC [1, 4] | MIC [1, 5] | MIC [1, 6] | MIC [1, 7] | MIC [1, 8] | MIC [1, 9] | MIC (Trichophyton verrucosum; [10]) | MIC (Trichophyton verrucosum; [11]) | MIC (Trichophyton tonsurans) | MIC (Pasteurella multocida; Pasteurella multocida A 723) | MIC (Candida albicans; [12]) | MIC (Trichophyton equinum; [27]) | MIC (Trichophyton equinum; [28]) | MIC (Trichophyton quickeaneum) | MIC (Trichophyton rubrum; [29]) | MIC (Trichophyton rubrum; [30]) | MIC (Trichophyton rubrum; [31]) | MIC (Trichophyton violoceum) | MIC [2] | MIC [3] | further results
3 | Clc1ccc(COC(Cn2ccnc2)c2ccc(Cl)cc2Cl)c(Cl)c1 (stereo not shown) [miconazole, reference compound] | 3 µg/mL (≈ 7.21 µM) | 0.2 µg/mL (≈ 0.481 µM) | 0.4 µg/mL (≈ 0.961 µM) | 0.4 µg/mL (≈ 0.961 µM) | 25 µg/mL (≈ 60.1 µM) | 0.4 µg/mL (≈ 0.961 µM) | 0.8 µg/mL (≈ 1.92 µM) | 0.8 µg/mL (≈ 1.92 µM) | 0.1 µg/mL (≈ 0.24 µM) |  |  | 0.4 µg/mL (≈ 0.961 µM) | < 0.05 µg/mL | 0.1 µg/mL (≈ 0.24 µM) | 0.1 µg/mL (≈ 0.24 µM) | 0.8 µg/mL (≈ 1.92 µM) | 0.8 µg/mL (≈ 1.92 µM) | 0.8 µg/mL (≈ 1.92 µM) | 1.5 µg/mL (≈ 3.6 µM) | 0.2 µg/mL (≈ 0.481 µM) | MIC (Pasteurella multocida; Pasteurella multocida): > 100 µg/mL; MIC (Candida albicans; read-out: MIC values, Candida albicans A 7): 0.2 µg/mL (≈ 0.481 µM); MIC (Candida albicans; read-out: MIC values, Candida albicans A 3140): 0.1 µg/mL (≈ 0.24 µM); MIC (Candida albicans; read-out: MIC values, Candida albicans A 3141): < 0.05 µg/mL; MIC (Candida albicans; read-out: MIC values, Candida albicans A 3144): 0.8 µg/mL (≈ 1.92 µM); MIC (Candida albicans; read-out: MIC values, Candida albicans A 3145): < 0.05 µg/mL; MIC (Candida albicans; read-out: MIC values, Candida albicans A 3165): 0.2 µg/mL (≈ 0.481 µM); MIC (Candida albicans; read-out: MIC values, Candida albicans A 3167): < 0.05 µg/mL; MIC (Candida albicans; read-out: MIC values, Candida albicans A 3168): 100 µg/mL (≈ 240 µM); MIC (Candida albicans; read-out: MIC values, Candida albicans A 3169): 1.5 µg/mL (≈ 3.6 µM); MIC (Candida albicans; read-out: MIC values, Candida albicans A 3171): < 0.05 µg/mL; MIC (Candida albicans; read-out: MIC values, Candida albicans A 3190): < 0.05 µg/mL; MIC (Candida albicans; read-out: MIC values, Candida albicans A 3191): < 0.05 µg/mL; MIC (Candida albicans; read-out: MIC values, Candida albicans A 3194): 0.2 µg/mL (≈ 0.481 µM)
